Columns and labels:
[1] = test system: CFTR; conditions: cited from earlier work; for correction of CF phenotype (chemical chaperones): Swiss 3T3, Brown et al., 1996
[2] = In vitro fluorescence quenching by I^- (Stern-Volmer); assay type: physicochemical; conditions: Table 4
Method: (§1) Computations. In vitro fluorescence quenching studies were carried out at peak excitation and emission wavelengths. Microliter aliquots of the sodium salt of the quenching anion (1 M) were added to indicator solution in 5 mM sodium phosphate (pH 7.2, unless indicated otherwise). Fluorescence intensities in the absence (Fo) and presence (F) of quencher anion ([Q]) were measured to give the Stem-Volmer constant (Kq) as defined by: Fo /F=1+Kq [Q].

[3] = Fluorescence spectra / optical properties; assay type: physicochemical; parameters: key to Brightness: ++++: very bright; +++: bright; ++: moderate brightness; +: weak; conditions: for Brightness / λem (emission wavelength) / λex (excitation wavelength): Table 4
Method: as §1, with “by:” for “by: Fo /F=1+Kq [Q].”
Fluorescence spectra reveal that LZQ and LMQ have broad excitation and emission peaks with maxima at 424 and 528 nm, respectively. The molar extinction coefficient of LZQ was 11,100 M^-1 cm^-1 at 424 nm and the quantum yield in the absence of I^- was 0.53. Stem-Volmer plots for quenching of LZQ and LMQ by I^- and Cl^-, with data for SPQ shown for comparison, were generated. In water (or saline), LZQ fluorescence was quenched by I^- with a Stem-Volmer constant of 60 M^-1. LZQ fluorescence was not quenched (Stem-Volmer constant <1 M^-1) by Cl^-, NO3^-, phosphate, acetate, Na^+ and K^+. LZQ fluorescence and I^- sensitivity were not affected by pH changes in the range 4.5-8.

[4] = test system: cells; assay: Response of intracellular fluorescence to osmotically-induced changes in cell volume; assay type: cell-based
Method: (§2) Fluorescence microscopy. Fluorescence microscopy measurements were performed as described previously (Chao et al., 1989). Briefly, coverglasses were mounted in a 0.5 ml perfusion chamber in which the cell-free glass surface made contact with an oil immersion objective (Nikon ×40 magnification, numerical aperture[NA] 1.3). Cell fluorescence was excited at 365±10 nm (SPQ) or 420 nm±10 nm (LZQ and LMQ). Emitted fluorescence was detected by a photomultiplier in a Nikon inverted epifluorescence microscope using a 410 nm dichroic mirror and 420 nm barrier filter (SPQ) or a 455 nm dichroic mirror and 500 nm barrier filter (LZQ). For cells colabeled with SPQ and LZQ, SPQ fluorescence was excited at 365±10 nm and detected using a 410 nm dichroic mirror and 455±30 nm interference filter. Confocal fluorescence micrographs were obtained using a Nipkow wheel confocal microscope and cooled CCD camera detector using a ×60 oil immersion objective (Nikon, NA 1.4). LZQ-labeled cells were viewed using a fluorescein filter set (excitation 480±15 nm, emission 520±20 nm).
The similar LZQ lifetime in cells and water predicts that LZQ fluorescence should be relatively insensitive to cell volume in the absence of I^-. […] When cells were exposed to hypoosmotic medium (225 mOsm), SPQ fluorescence increased by 15±2%, whereas LZQ fluorescence increased by only 4±1%.

[5] = test system: cells; assay: Toxicity in assays of cell growth; assay type: cell-based; conditions: 2 mM in culture medium for 72 h
Method: (§3) LZQ and LMQ were loaded into cells efficiently by hypotonic shock or passive incubation. […] As was found for SPQ, LZQ and LMQ were non-toxic to cells in assays of cell growth (2 mM in culture medium for 72 h).

[6] = test system: cells; assay: Photobleaching in cells; assay type: cell-based; conditions: Table 4
Method: as §2
(§4) A time course of LZQ fluorescence during perfusion with physiological saline at 23° C. was generated. A small group of 20-30 cells was illuminated continuously and fluorescence was detected by a photomultiplier using an ×40, 1.3 NA objective. Cellular fluorescence decreased slowly at a rate of 2.5% per hour. To determine the relative contributions of indicator leakage vs. photobleaching to the slow decline in fluorescence, the perfused cells were illuminated intermittently. […] Background fluorescence (in non-labeled cells) was generally <5% of the fluorescence of LZQ-labeled cells.

[7] = test system: cells; assay: Indicator leakage / cytoplasmic retention; assay type: cell-based; conditions: Table 4
Method: as §2, §4

[8] = test system: cells; assay: Cell loading and intracellular distribution (fluorescence/confocal microscopy); assay type: cell-based; conditions: for Cellular properties: staining/distribution: Table 4
Method: as §2
Transport measurements. Cells were labeled with LZQ or SPQ by hypotonic shock (loading buffer/water 1:1 containing 2 mM LZQ or 7.5 mM SPQ) for 5 min at room temperature or by overnight incubation with indicators in the cell culture medium. Extracellular indicator was removed by washing just prior to measurements. For fluorescence microscopy, glass coverslips were then mounted in a perfusion chamber (flow ~2 ml/min) in which solutions were exchanged using a 4-way valve. For microplate reader measurements, cells in 96-well plates were bathed in […] of the `1st buffer` (see Table 3) and […] of the Cl^- -containing, I^- -free solution was injected into the well to drive Cl^- /I^- exchange (protocol 1). For stimulation of CFTR using protocol 2, […] of a 1:8 mixture of the 1st buffer and the 2nd buffer containing […] forskolin, 2 mM CPT-cAMP and […] IBMX was added.
as §3

[9] = test system: CFTR-expressing fibroblasts and T84 cells; assay: Cl^-/I^- exchange by LZQ fluorescence, CFTR-expressing cells; assay type: cell-based; conditions: solution Cl^- replaced by I^-
Method: as §2, with “LZQ-labeled cells were viewed using a fluorescein filter set (excitation 480±15 nm, emission 520±20 nm).” left out
(§5) Transport measurements. […] For fluorescence microscopy, glass coverslips were then mounted in a perfusion chamber (flow ~2 ml/min) in which solutions were exchanged using a 4-way valve. For microplate reader measurements, cells in 96-well plates were bathed in […] of the `1st buffer` (see Table 3) and […] of the Cl^- -containing, I^- -free solution was injected into the well to drive Cl^- /I^- exchange (protocol 1). […]

[10] = test system: control fibroblasts; assay: Cl^-/I^- exchange by LZQ fluorescence, control cells; assay type: cell-based; conditions: solution Cl^- replaced by I^-
Method: as §2, with “LZQ-labeled cells were viewed using a fluorescein filter set (excitation 480±15 nm, emission 520±20 nm).” left out
as §5

| Molecule | Brightness [3] | λem (emission wavelength) [3] | λex (excitation wavelength) [3] | Ksv (I^-), Stern Volmer quenching constant [2] | also measured |
| --- | --- | --- | --- | --- | --- |
| CCCC(=O)[O-].[Na+] [sodium butyrate] | – | – | – | – | Cl transport, overexpression of ΔF508 ([1]; CFPAC-1, JME/CF15, 1° culture, Cheng et al., 1995): resulted in detectable Cl |
| CC(C)Cn1c(=O)n(C)c(=O)c2[nH]cnc21 [IBMX, 3-isobutyl-1-methylxanthine] | – | – | – | – | effect of increased [IBMX] on ΔF508 response ([1]; L cells, Yang et al., 1993): improved |
| C[n+]1c(-c2ccccc2)ccc2cc3ccc(-c4ccccc4)nc3cc21 [Compound VII, 1-methyl-2,7-diphenylpyrido-[3,2,g]quinolinium] | +++ | 515 nm | 405 nm | 46 M⁻¹ | – |
| COc1ccc2c(ccc[n+]2CCCS(=O)(=O)[O-])c1 [SPQ, 6-methoxy-N-[3-sulfopropyl]quinolinium, reference compound] | – | – | – | – | fluorescence increase upon exposure to hypoosmotic medium ([4]; 225 mOsm): 15±2%; fluorescence decrease upon exposure to hyperosmotic medium ([4]; 600 mOsm, absence of Cl^-, S.E., n=3): 30±2%; toxicity to cells (cell growth) [5]: non-toxic |
| CFTR protein: purified CFTR protein | – | – | – | – | Cl transport after transfer of purified protein ([1]; CHO-CFTR, FRT-CFTR, LLCPK1, Marshall et al., 1994): induced Cl transport |
| N=c1ccc2c(-c3ccccc3C(=O)O)c3ccc(N)cc3oc-2c1 [III, rhodamine-110, reference compound] | ++++ | 520 nm | 496 nm | 40 M⁻¹ | – |
| [2H]O[2H] [D2 O] | – | – | – | – | correction of CF phenotype (chemical chaperones) [1]: corrected the CF phenotype |
| NCCCNCCCCNC(=O)C(O)NC(=O)CCCCCCN=C(N)N (centres unmarked) [Deoxyspergualin] | – | – | – | – | restoration of Cl transport ([1]; C127-CFTR, JME/CF15, IBE-1, Jiang et al., 1998): partially restored |
| Nc1ncnc2c1nc([O-])c1cccc[n+]12 [II] | +++ | 530 nm | 424 nm | 70 M⁻¹ | Cellular properties: leakage rate [7]: moderate; emission maximum [3]: 528 nm; excitation maximum [3]: 424 nm; Cellular properties: staining/distribution [8]: staining uniform; loading into cells ([8]; hypotonic shock or passive incubation): efficiently; Cellular properties: photobleaching [6]: slow photobleaching; toxicity to cells (cell growth) [5]: non-toxic |
| C=C[C@@]1(C)CC(=O)[C@]2(O)[C@@]3(C)[C@@H](O)CCC(C)(C)[C@@H]3[C@H](O)[C@H](OC(C)=O)[C@@]2(C)O1 [forskolin] | – | – | – | – | forskolin-stimulated change in LZQ fluorescence [9]: rapid decrease in LZQ fluorescence; forskolin-stimulated decrease in LZQ fluorescence, control [10]: not in control fibroblasts |
| C[N+](C)(C)[O-] [TMAO] | – | – | – | – | correction of CF phenotype (chemical chaperones) [1]: corrected the CF phenotype |
| OCC(O)CO [glycerol] | – | – | – | – | correction of CF phenotype (chemical chaperones) [1]: corrected the CF phenotype |

The next lines start with results.

| Brightness [3] | λem (emission wavelength) [3] | λex (excitation wavelength) [3] | Molecule | Ksv (I^-), Stern Volmer quenching constant [2] | also measured |
| --- | --- | --- | --- | --- | --- |
| ++++ | 530 nm | 505 nm | rhodamine green [IV, reference compound] | 30 M⁻¹ | – |
| ++ | 586 nm | 520 nm | Nc1ccc2nc3ccc(N)cc3[n+](-c3ccccc3)c2c1 [XIII, phenosafranine, reference compound] | 33 M⁻¹ | – |
| ++++ | 550 nm | 440 nm | CN(C)c1ccc2cc3ccc(N(C)C)cc3[n+](C)c2c1 [X, 10-methyl acridinium orange] | 30 M⁻¹ | Cellular properties: photobleaching [6]: very rapid |
| +++ | 457 nm | 422 nm | Nc1c2ccccc2[n+](CCCS(=O)(=O)[O-])c2ccccc12 [XII, 9-amino-10-(3-sulfopropys) acridinium] | 253 M⁻¹ | Cellular properties: staining/distribution [8]: nuclear staining; Cellular properties: photobleaching [6]: rapid |
| +++ | 585 nm | 571 nm | O=c1ccc2nc3ccc(O)cc3oc-2c1 [VIII, resorufin, reference compound] | 76 M⁻¹ | – |
| ++++ | 520 nm | 440 nm | Cc1cc2cc3cc(C)c(N)cc3[n+](C)c2cc1N [IX, 10-methyl acridinium yellow] | 90 M⁻¹ | Cellular properties: photobleaching [6]: very rapid |
